Data on 3 molecules can be found in patent publication US20150173351A1, “MICROCAPSULE” (priority 2012, published 2015).

A short description of the series: Retention rate of the agriculturally active ingredient after xenon light irradiation (photodegradation). The series is classed as physicochemical. The following applies: active ingredient alone, air-dried on glass petri dish; xenon light (290 nm cutoff), 0.68 W/m^2 at 340 nm, 8 hours, 35° C.; weight % relative to 5 mg. The method, then:
A method for the calculation of a retention rate of the agriculturally active ingredient defined above is more specifically as follows. First, 250 mg of the agriculturally active ingredient is dissolved in 50 mL of a solvent such as acetone, which can sufficiently dissolve the agriculturally active ingredient and also has high volatility, and 1 mL of the solution is added to a glass petri dish having a diameter of 6 cm using a one-mark pipette, spread entirely over the petri dish, and then air-dried at room temperature. The petri dish is covered with a lid made of quartz glass and then set in a weathering tester (manufactured by Q-Lab Corporation under the trade name of Q-SUN Xenon Accelerated Weathering Tester, Model Xe-3) equipped with a borosilicate filter (manufactured by Q-Lab Corporation under the trade name of Daylight-BB Optical Filter) attached thereto. After irradiation with xenon light under the conditions of an intensity at 340 nm of 0.68 W/m^2 and a temperature of 35° C. (35° C. as measured by an insulated black panel thermometer) for 8 hours, the amount of the agriculturally active ingredient remaining on the petri dish is determined by a known determination method such as high-performance liquid chromatography. It is possible to determine a retention rate by calculating as the weight percentage relative to 5 mg of the agriculturally active ingredient used above. The above agriculturally active ingredient used in the microcapsule of the present invention may be any of an insecticidally active component, a fungicidally active component, and a herbicidally active component, and is not particularly limited. The agriculturally active ingredient includes fenpyrazamine, allethrin, and prallethrin. […] It is preferred to use an agriculturally active ingredient which is solid at normal temperature (25° C.), for example fenpyrazamine.
For `C=CCC1=C(C)C(OC(=O)C2C(C=C(C)C)C2(C)C)CC1=O` (stereo not drawn) [allethrin], the “retention rate after irradiation with xenon light” value (“retention rate after irradiation” below) is given as 3.3%.

In the case of `C=CCSC(=O)n1c(N)c(-c2ccccc2C)c(=O)n1C(C)C` [fenpyrazamine], the “retention rate after irradiation” value is given as 28.1%.

With `C#CCC1=C(C)C(OC(=O)C2C(C=C(C)C)C2(C)C)CC1=O` (stereo not drawn) [prallethrin], the “retention rate after irradiation” value stood at 6.4%.
